Experimental data as given in patent US20260306496A1, “CDK2 INHIBITOR PYRAZOLOPYRIMIDINE COMPOUNDS” (ALEKSIA THERAPEUTICS, INC., priority 2023, published 2026).
Where a name gives a salt, the structure may show the parent alone.

target: CDK2/CCNE1 (Homo sapiens, UniProt P24941); test: CDK2 homogeneous time-resolved fluorescence (HTRF) assay; format: biochemical; conditions: 3 nM CDK2/CCNE1, 1 mM ATP, 50 nM ULight-eIF4E-binding protein 1 (Thr37/46) peptide, 60 min at 23° C.; read-out: CDK2/CCNE IC50 <25 nM
Procedure: A CDK homogeneous time-resolved fluorescence (HTRF) assay was used to assess the potency of the compounds described herein.
To an untreated 384-well microtiter plate (ProxiPlate) was added 100 nL 100× test compound in DMSO and 5 μL 2×CDK enzyme in assay buffer (50 mM HEPES, 1 mM EGTA, 10 mM MgCl2, 0.01% Tween 20, 2 mM DTT). The plate was centrifuged at 800 RPM for 1 min then incubated for 20 min at 23° C. 2.5 μL per well of 4×ATP and 2.5 μL 4×ULight™-eIF4E-binding protein 1 (Thr37/46) Peptide) substrate were added to all wells. After addition, the plates were centrifuged at 800 RPM for 1 min. The plates were incubated at 23° C. for 60 min. 5 μL per well 3×EDTA solution were added to each well to stop the reaction. 2.5 μL 7×LANCE Ultra Europium-anti-phospho-eTF4E-binding protein 1 (Thr37/46 antibody) were added to each well and the plate was centrifuged for 1 min at 800 RPM. The plate was incubated for 60 min at 23° C. Fluorescence was read at 340 nm excitation and 665 nm emission on an EnVision 2105 fluorescence reader. The final concentrations of reagents in the activity assay were 3 nM CDK2/CCNE1, 1 mM ATP, 50 nM ULight™-eIF4E-binding protein 1 (Thr37/46) Peptide substrate, 1% DMSO, 10 mM EDTA, and 2 nM LANCE Ultra Europium-anti-phospho-eTF4E-binding protein 1 (Thr37/46).
Dose-response titrations were conducted by using an 11-point, three-fold serial dilution scheme typically starting at 1 μM. Signals were reported as fluorescence units at 665 nm or the ratio of fluorescence units at 665 nm/fluorescence units at 615 nm. Signals are referred to below as “Lance signals”.
Using this assay, the IC50 values of example compounds were determined.

**Q.** With `C=CS(=O)(=O)N1CCC(Nc2ncc3cnn(CC4CCCCC4)c3n2)CC1` [Compound 1, 1-(cyclohexylmethyl)-N-(1-(vinylsulfonyl)piperidin-4-yl)-1H-pyrazolo[3,4-d]pyrimidin-6-amine] as the compound, how does the IC50 read?
**A.** < 25 nM

**Q.** How did the IC50 turn out when `CS(=O)(=O)N1CCC(Nc2ncc3cnn(CC4CCCCC4)c3n2)CC1` [Compound 2, 1-(cyclohexylmethyl)-N-(1-(methylsulfonyl)piperidin-4-yl)-1H-pyrazolo[3,4-d]pyrimidin-6-amine] was run?
**A.** < 25 nM

**Q.** `OCc1cccc(Nc2ncc3cnn(CC4CCCCC4)c3n2)c1` [Compound 20, (3-((1-(cyclohexylmethyl)-1H-pyrazolo[3,4-d]pyrimidin-6-yl)amino)phenyl)methanol] was tested. Which IC50 did it give?
**A.** < 25 nM

**Q.** For `O=Cc1cccc(Nc2ncc3cnn(CC4CCCCC4)c3n2)c1` [Compound 26, 3-((1-(cyclohexylmethyl)-1H-pyrazolo[3,4-d]pyrimidin-6-yl)amino)benzaldehyde], which IC50 is on record?
**A.** < 25 nM

**Q.** How did the IC50 turn out when `C=CS(=O)(=O)c1ccc(Nc2ncc3cnn(CC4CCCCC4)c3n2)cn1` [Compound 34, 1-(cyclohexylmethyl)-N-(6-(vinylsulfonyl)pyridin-3-yl)-1H-pyrazolo[3,4-d]pyrimidin-6-amine] was run?
**A.** < 25 nM

**Q.** How did the IC50 turn out when `OCCc1cccc(Nc2ncc3cnn(CC4CCCCC4)c3n2)c1` [Compound 35, 2-(3-((1-(cyclohexylmethyl)-1H-pyrazolo[3,4-d]pyrimidin-6-yl)amino)phenyl)ethan-1-ol] was run?
**A.** < 25 nM

same assay, conditions: 3 nM CDK2/CCNE1, 1 mM ATP, 50 nM ULight-eIF4E-binding protein 1 (Thr37/46) peptide, 60 min at 23° C.; read-out: CDK2/CCNE IC50 >150 nM

**Q.** With `CS(=O)(=O)c1ccc(Nc2ncc3cnn(CC4CCC(N5CCCC5)CC4)c3n2)cc1` (single isomer, unassigned; stereoisomer b) [Compound 59, N-(4-(methylsulfonyl)phenyl)-1-((4-(pyrrolidin-1-yl)cyclohexyl)methyl)-1H-pyrazolo[3,4-d]pyrimidin-6-amine (stereoisomer B)] as the compound, how does the IC50 read?
**A.** > 150 nM

**Q.** `CS(=O)(=O)c1ccc(Nc2ncc3cnn(Cc4ccccc4)c3n2)cc1` [Compound 4, 1-benzyl-N-(4-(methylsulfonyl)phenyl)-1H-pyrazolo[3,4-d]pyrimidin-6-amine] was tested. Which IC50 did it give?
**A.** > 150 nM

**Q.** With `CS(=O)(=O)c1ccc(Nc2ncc3cnn(Cc4cccnc4)c3n2)cc1` [Compound 5, N-(4-(methylsulfonyl)phenyl)-1-(pyridine-3-ylmethyl)-1H-pyrazolo[3,4-d]pyrimidin-6-amine] as the compound, how does the IC50 read?
**A.** > 150 nM

**Q.** Which IC50 does the source give for `CS(=O)(=O)c1ccc(Nc2ncc3cnn(CC4CCNCC4)c3n2)cc1` [Compound 7, N-(4-(methylsulfonyl)phenyl)-1-(piperidin-4-ylmethyl)-1H-pyrazolo[3,4-d]pyrimidin-6-amine hydrochloride] here?
**A.** > 150 nM

**Q.** How did the IC50 turn out when `C=CS(=O)(=O)c1ccc(Nc2ncc3cn[nH]c3n2)cc1` [Compound 9, N-(4-(vinylsulfonyl)phenyl)-1H-pyrazolo[3,4-d]pyrimidin-6-amine] was run?
**A.** > 150 nM

**Q.** Which IC50 does the source give for `C=CS(=O)(=O)c1ccc(Nc2ncc3cnn(C)c3n2)cc1` [Compound 10, 1-methyl-N-(4-(vinylsulfonyl)phenyl)-1H-pyrazolo[3,4-d]pyrimidin-6-amine] here?
**A.** > 150 nM

**Q.** How did the IC50 turn out when `CN1CCN(CCn2ncc3cnc(Nc4ccc(S(C)(=O)=O)cc4)nc32)CC1` [Compound 15, 1-(2-(4-methylpiperazin-1-yl)ethyl)-N-(4-(methylsulfonyl)phenyl)-1H-pyrazolo[3,4-d]pyrimidin-6-amine] was run?
**A.** > 150 nM

**Q.** With `CS(=O)(=O)c1ccc(Nc2ncc3cnn(C[C@H]4CC[C@@H](C(=O)O)CC4)c3n2)cc1` [Compound 16, (1s,4s)-4-((6-((4-(methylsulfonyl)phenyl)amino)-1H-pyrazolo[3,4-d]pyrimidin-1-yl)methyl)cyclohexane-1-carboxylic acid] as the compound, how does the IC50 read?
**A.** > 150 nM

**Q.** `CS(=O)(=O)c1ccc(Nc2ncc3cnn(C[C@H]4CC[C@@H](C(=O)Oc5ccc(F)cc5)CC4)c3n2)cc1` [Compound 18, 4-Fluorophenyl (1s,4s)-4-((6-((4-(methylsulfonyl)phenyl)amino)-1H-pyrazolo[3,4-d]pyrimidin-1-yl)methyl)cyclohexane-1-carboxylate] was tested. Which IC50 did it give?
**A.** > 150 nM

**Q.** Which IC50 does the source give for `Cc1nn(CC2CCCCC2)c2nc(Nc3ccc(S(C)(=O)=O)cc3)ncc12` [Compound 19, 1-(cyclohexylmethyl)-3-methyl-N-(4-(methylsulfonyl)phenyl)-1H-pyrazolo[3,4-d]pyrimidin-6-amine] here?
**A.** > 150 nM

**Q.** With `C=CS(=O)(=O)c1ncc(Nc2ncc3cnn(CC4CCCCC4)c3n2)cc1Cl` [Compound 31, N-(5-chloro-6-(vinylsulfonyl)pyridin-3-yl)-1-(cyclohexylmethyl)-1H-pyrazolo[3,4-d]pyrimidin-6-amine] as the compound, how does the IC50 read?
**A.** > 150 nM

same assay, conditions: column 25-150 nM; 3 nM CDK2/CCNE1, 1 mM ATP, 50 nM ULight-eIF4E-binding protein 1 (Thr37/46) peptide, 60 min at 23° C.; read-out: CDK2/CCNE IC50 25-150 nM

**Q.** With `CS(=O)(=O)c1ccc(Nc2ncc3cnn(C4CCOCC4)c3n2)cc1` [Compound 3, N-(4-(methylsulfonyl)phenyl)-1-(tetrahydro-2H-pyran-4-yl)-1H-pyrazolo[3,4-d]pyrimidin-6-amine] as the compound, how does the IC50 read?
**A.** 25 to 150 nM

**Q.** With `CS(=O)(=O)c1ccc(Nc2ncc3cnn(C[C@H]4CC[C@@H](N)CC4)c3n2)cc1` [Compound 6, 1-(((1S,4S)-4-aminocyclohexyl)methyl)-N-(4-(methylsulfonyl)phenyl)-1H-pyrazolo[3,4-d]pyrimidin-6-amine] as the compound, how does the IC50 read?
**A.** 25 to 150 nM

**Q.** With `C=CS(=O)(=O)c1ccc(Nc2ncc3cnn(CC4CCCCC4)c3n2)cc1` [Compound 8, 1-(cyclohexylmethyl)-N-(4-(vinylsulfonyl)phenyl)-1H-pyrazolo[3,4-d]pyrimidin-6-amine] as the compound, how does the IC50 read?
**A.** 25 to 150 nM

**Q.** How did the IC50 turn out when `CS(=O)(=O)c1ccc(Nc2ncc3cnn(C[C@H]4CC[C@H](CO)CC4)c3n2)cc1` [Compound 11, ((1r,4r)-4-((6-((4-(methylsulfonyl)phenyl)amino)-1H-pyrazolo[3,4-d]pyrimidin-1-yl)methyl)cyclohexyl)methanol] was run?
**A.** 25 to 150 nM

**Q.** For `CS(=O)(=O)c1ccc(Nc2ncc3cnn(CC4CCCCC4)c3n2)cc1` [Compound 12, 1-(cyclohexylmethyl)-N-(4-(methylsulfonyl)phenyl)-1H-pyrazolo[3,4-d]pyrimidin-6-amine], which IC50 is on record?
**A.** 25 to 150 nM

**Q.** For `CS(=O)(=O)c1ccc(Nc2ncc3cnn(CC4CCCC4)c3n2)cc1` [Compound 13, 1-(cyclopentylmethyl)-N-(4-(methylsulfonyl)phenyl)-1H-pyrazolo[3,4-d]pyrimidin-6-amine], which IC50 is on record?
**A.** 25 to 150 nM

**Q.** Which IC50 does the source give for `CS(=O)(=O)c1ccc(Nc2ncc3cnn(C4CCNCC4)c3n2)cc1` [Compound 14, N-(4-(methylsulfonyl)phenyl)-1-(piperidin-4-yl)-1H-pyrazolo[3,4-d]pyrimidin-6-amine] here?
**A.** 25 to 150 nM

**Q.** `CS(=O)(=O)c1ccc(Nc2ncc3cnn(C[C@H]4CC[C@@H](CO)CC4)c3n2)cc1` [Compound 17] was tested. Which IC50 did it give?
**A.** 25 to 150 nM

**Q.** For `C=CS(=O)(=O)c1ncc(Nc2ncc3cnn(CC4CCCCC4)c3n2)cn1` [Compound 21, 1-(cyclohexylmethyl)-N-(2-(vinylsulfonyl)pyrimidin-5-yl)-1H-pyrazolo[3,4-d]pyrimidin-6-amine], which IC50 is on record?
**A.** 25 to 150 nM

**Q.** With `OCCc1ccc(Nc2ncc3cnn(CC4CCCCC4)c3n2)cc1` [Compound 22, 2-(4-((1-(cyclohexylmethyl)-1H-pyrazolo[3,4-d]pyrimidin-6-yl)amino)phenyl)ethan-1-ol] as the compound, how does the IC50 read?
**A.** 25 to 150 nM

**Q.** With `C=CS(=O)(=O)c1ccc(Nc2ncc3cnn(CC4CCCCC4)c3n2)cc1C` [Compound 23, 1-(cyclohexylmethyl)-N-(3-methyl-4-(vinylsulfonyl)phenyl)-1H-pyrazolo[3,4-d]pyrimidin-6-amine] as the compound, how does the IC50 read?
**A.** 25 to 150 nM

**Q.** `OCc1ccc(Nc2ncc3cnn(CC4CCCCC4)c3n2)cc1` [Compound 24, (4-((1-(cyclohexylmethyl)-1H-pyrazolo[3,4-d]pyrimidin-6-yl)amino)phenyl)methanol] was tested. Which IC50 did it give?
**A.** 25 to 150 nM

**Q.** For `O=Cc1ccc(Nc2ncc3cnn(CC4CCCCC4)c3n2)cc1` [Compound 25, 4-((1-(cyclohexylmethyl)-1H-pyrazolo[3,4-d]pyrimidin-6-yl)amino)benzaldehyde], which IC50 is on record?
**A.** 25 to 150 nM

**Q.** For `CS(=O)(=O)c1ccc(Nc2ncc3cnn(C[C@H]4CC[C@@H](C=O)CC4)c3n2)cc1` [Compound 27, (1s,4s)-4-((6-((4-(methylsulfonyl)phenyl)amino)-1H-pyrazolo[3,4-d]pyrimidin-1-yl)methyl)cyclohexane-1-carbaldehyde], which IC50 is on record?
**A.** 25 to 150 nM

**Q.** For `CS(=O)(=O)c1ccc(Nc2ncc3cnn(Cc4cccc5[nH]ccc45)c3n2)cc1` [Compound 29, 1-((1H-indol-4-yl)methyl)-N-(4-(methylsulfonyl)phenyl)-1H-pyrazolo[3,4-d]pyrimidin-6-amine], which IC50 is on record?
**A.** 25 to 150 nM

**Q.** With `C=C(C)S(=O)(=O)c1ccc(Nc2ncc3cnn(CC4CCCCC4)c3n2)cc1` [Compound 30, 1-(cyclohexylmethyl)-N-(4-(prop-1-en-2-ylsulfonyl)phenyl)-1H-pyrazolo[3,4-d]pyrimidin-6-amine] as the compound, how does the IC50 read?
**A.** 25 to 150 nM
